Assay results taken from ChEMBL document CHEMBL4715897, “A new 1-nitro-9-aminoacridine derivative targeting yeast topoisomerase II able to overcome fluconazole-resistance” (2021).
Converted amounts (≈) assume the structure as drawn. The source made the active and inactive calls. No cut-off for these calls is given here.

Key:
[1] = system: Candida albicans; assay: Antifungal activity against fluconazole-sensitive Candida albicans Gu4 assessed as reduction in microbial growth; format: functional
[2] = system: Candida albicans; assay: Antifungal activity against fluconazole-sensitive Candida albicans B3 assessed as reduction in microbial growth; format: functional
[3] = system: Candida albicans; assay: Antifungal activity against fluconazole-resistant Candida albicans B4 assessed as reduction in microbial growth; format: functional
[4] = system: Candida albicans; assay: Antifungal activity against Candida albicans ATCC 10231 assessed as reduction in microbial growth; format: functional
[5] = system: Candida albicans; assay: Antifungal activity against fluconazole-resistant Candida albicans F5 assessed as reduction in microbial growth; format: functional
[6] = system: Candida albicans; assay: Antifungal activity against fluconazole-sensitive Candida albicans F2 assessed as reduction in microbial growth; format: functional
[7] = system: Candida albicans; assay: Antifungal activity against fluconazole-resistant Candida albicans Gu5 assessed as reduction in microbial growth; format: functional
[8] = system: Candida parapsilosis; assay: Antifungal activity against Candida parapsilosis ATCC 22019 assessed as reduction in microbial growth; format: functional; details: Lodderomyces parapsilosis
[9] = system: Saccharomyces cerevisiae; assay: Antifungal activity against Saccharomyces cerevisiae ATCC 9763 assessed as reduction in microbial growth; format: functional
[10] = system: Pichia kudriavzevii; assay: Antifungal activity against Candida krusei ATCC 6258 assessed as reduction in microbial growth; format: functional
[11] = system: Nakaseomyces glabratus; assay: Antifungal activity against Candida glabrata ATCC 90030 assessed as reduction in microbial growth; format: functional
[12] = system: Saccharomyces cerevisiae; assay: Fungicidal activity against Saccharomyces cerevisiae ATCC 9763; format: functional
[13] = system: Candida albicans; assay: Growth inhibition of Candida albicans ATCC 10231 assessed as reduction in yeast to mycelium formation by measuring reduction in hyphal growth at 0.25 MIC after 3 hrs by light microscopic method relative to control; format: functional
[14] = Ratio of MFC for fungicidal activity against Saccharomyces cerevisiae ATCC 9763 to MIC for antifungal activity against Saccharomyces cerevisiae ATCC 9763; format: functional
[15] = system: Candida albicans; assay: Growth inhibition of Candida albicans ATCC 10231 assessed as reduction in yeast to mycelium formation by measuring reduction in hyphal growth at concentration of 0.25 MIC after 3 hrs in G1cNAc medium by light microscopic method relative to control; format: functional, organism-based
[16] = system: Saccharomyces cerevisiae; assay: Inhibition of Saccharomyces cerevisiae DNA topoisomerase 2 assessed as decrease in relaxation of supercoiled DNA using supercoiled pBR322 plasmid DNA at 1 to 200 uM gel electrophoresis method; details: dose 1-200 µM
[17] = system: Pichia kudriavzevii; assay: Fungicidal activity against Candida krusei DSM 6128; format: functional
[18] = system: Candida albicans; assay: Fungicidal activity against Candida albicans ATCC 10231; format: functional
[19] = system: Candida albicans; assay: Antibiofilm activity against Candida albicans ATCC 10231 at concentration of 0.25 MIC by XTT assay; format: functional, organism-based
[20] = system: Nakaseomyces glabratus; assay: Fungicidal activity against Candida glabrata DSM 11226; format: functional
[21] = system: Candida parapsilosis; assay: Fungicidal activity against Candida parapsilosis DSM 5784; format: functional; details: Lodderomyces parapsilosis
[22] = system: Saccharomyces cerevisiae; assay: Inhibition of Saccharomyces cerevisiae DNA topoisomerase 2 assessed as decrease in relaxation of supercoiled DNA using supercoiled pBR322 plasmid DNA at 100 to 150 uM gel electrophoresis method; details: dose 100-150 µM
[23] = system: Candida albicans; assay: Growth inhibition of Candida albicans ATCC 10231 assessed as reduction in yeast to mycelium formation by measuring reduction in hyphal growth at concentration of 0.25 MIC after 3 hrs in YPG medium by light microscopic method relative to control; format: functional, organism-based

| Compound | MIC90 [1] [µg/mL] | MIC90 [2] [µg/mL] | MIC90 [3] [µg/mL] | MIC90 [4] [µg/mL] | MIC90 [5] [µg/mL] | MIC90 [6] [µg/mL] | MIC90 [7] [µg/mL] | MIC90 [8] [µg/mL] | MIC90 [9] [µg/mL] | MIC90 [10] [µg/mL] | MIC90 [11] [µg/mL] | MFC [12] [µg/mL] | Ratio [14] | inhibition [16] | MFC [18] [µg/mL] | Activity [19] | MFC [20] [µg/mL] | other results |
| --- | --- | --- | --- | --- | --- | --- | --- | --- | --- | --- | --- | --- | --- | --- | --- | --- | --- | --- |
| OC(Cn1cncn1)(Cn1cncn1)c1ccc(F)cc1F [FLUCONAZOLE] | 4 | 1 | 16 | 8 | > 64 | 8 | > 64 |  |  |  |  |  |  |  |  |  |  |  |
| Cc1ccc([N+](=O)[O-])c2c(NCCOC(=O)CCCCC(=O)OCCNc3c4ccccc4nc4c(C)ccc([N+](=O)[O-])c34)c3ccccc3nc12 |  |  |  | > 32 |  |  |  | > 32 | > 32 | > 32 | > 32 |  |  |  |  |  |  |  |
| Cc1ccc([N+](=O)[O-])c2c(NCCNCCNCCNc3c4ccccc4nc4c(C)ccc([N+](=O)[O-])c34)c3ccccc3nc12 |  |  |  | > 32 |  |  |  | > 32 | 32 | > 32 | > 32 |  |  |  |  |  |  |  |
| O=C(CCCCC(=O)OCCNc1c2ccccc2nc2cccc([N+](=O)[O-])c12)OCCNc1c2ccccc2nc2cccc([N+](=O)[O-])c12 |  |  |  | > 16 |  |  |  | > 16 | > 16 | > 16 | > 16 |  |  |  |  |  |  |  |
| Cc1ccc([N+](=O)[O-])c2c(NCCCNC(=O)[C@@H](N)CCCCN)c3ccccc3nc12 | > 64 | > 64 | > 64 | 32 | > 64 | > 64 | > 64 | > 64 | 32 | 64 | > 64 | 32 (≈ 73 µM) | >=1 | Active |  |  |  | growth inhibition (GI) [13]: 100%; growth inhibition (GI) [15]: inactive |
| Cc1ccc([N+](=O)[O-])c2c(NCCOC(=O)[C@@H](N)CCCCN)c3ccccc3nc12 | 8 | 16 | > 64 | 4 | > 64 | 8 | > 64 | 64 | 1 | 16 | 32 | 2 (≈ 4.7 µM) | >=1 | inactive | 16 (≈ 37.6 µM) | inactive | 64 (≈ 150 µM) | MFC [17]: 32 µg/mL (≈ 75.2 µM) |
| NCCCC[C@H](N)C(=O)OCCNc1c2ccccc2nc2cccc([N+](=O)[O-])c12 | 4 | 4 | > 64 | 4 | > 64 | 4 | > 64 | 32 | 0.5 | 16 | 16 | 1 (≈ 2.43 µM) | >=1 | inactive | 16 (≈ 38.9 µM) | Active | 64 (≈ 156 µM) | MFC [21]: 128 µg/mL (≈ 311 µM); MFC [17]: 64 µg/mL (≈ 156 µM) |
| NCCCC[C@H](N)C(=O)NCCCNc1c2ccccc2nc2cccc([N+](=O)[O-])c12 | 32 | 16 | 16 | 8 | 64 | 64 | 32 | 32 | 16 | 64 | 32 | 16 (≈ 37.7 µM) | >=1 | Active | 16 (≈ 37.7 µM) | Active | > 128 | MFC [21]: > 128 µg/mL; growth inhibition (GI) [13]: Active; inhibition [22]: Active; growth inhibition (GI) [23]: Active; growth inhibition (GI) [15]: Active |
